Test results published in ChEMBL document CHEMBL3046585, “Antifungal activity of a novel quercetin derivative bearing a trifluoromethyl group on Candida albicans” (Med Chem Res, 2012).
Active and inactive are the calls of the source. The rule behind the calls is not given here.

What was measured:
[1] = 1-octanol-water partition coefficient, log P of the compound; assay type: physicochemical
Candida albicans [2] = test: Antifungal activity against Candida albicans PC31 at 2.20 mg/ml after 48 hr; assay type: functional, organism-based
Candida albicans [3] = test: Antifungal activity against Candida albicans PC31 at 1.60 mg/ml after 48 hr; assay type: functional, organism-based
Candida albicans [4] = test: Antifungal activity against Candida albicans PC31 at 2.50 mg/ml after 48 hr; assay type: functional, organism-based
Candida albicans [5] = test: Antifungal activity against Candida albicans PC31 at 1.25 mg/ml after 48 hr; assay type: functional, organism-based
Candida albicans [6] = test: Antifungal activity against Candida albicans PC31 at 0.06 mg/ml after 48 hr; assay type: functional, organism-based
Candida albicans [7] = test: Antifungal activity against Candida albicans PC31 at 0.40 mg/ml after 48 hr; assay type: functional, organism-based
Candida albicans [8] = test: Antifungal activity against Candida albicans PC31 at 1.90 mg/ml after 48 hr; assay type: functional, organism-based
Candida albicans [9] = test: Antifungal activity against Candida albicans PC31 at 0.60 mg/ml after 48 hr; assay type: functional, organism-based
Candida albicans [10] = test: Antifungal activity against Candida albicans PC31 at 0.30 mg/ml after 48 hr; assay type: functional, organism-based
Candida albicans [11] = test: Antifungal activity against Candida albicans PC31 at 0.50 mg/ml after 48 hr; assay type: functional, organism-based
Candida albicans [12] = test: Antifungal activity against Candida albicans PC31 at 2.10 mg/ml after 48 hr; assay type: functional, organism-based
Candida albicans [13] = test: Antifungal activity against Candida albicans PC31 at 0.15 mg/ml after 48 hr; assay type: functional, organism-based
Candida albicans [14] = test: Antifungal activity against Candida albicans PC31 at 1.30 mg/ml after 48 hr; assay type: functional, organism-based

logP [1] | Structure (SMILES) | Activity (Candida albicans [2]) | Activity (Candida albicans [3]) | Activity (Candida albicans [4]) | Activity (Candida albicans [5]) | Activity (Candida albicans [6]) | Activity (Candida albicans [7]) | Activity (Candida albicans [8]) | Activity (Candida albicans [9]) | Activity (Candida albicans [10]) | Activity (Candida albicans [11]) | Activity (Candida albicans [12]) | Activity (Candida albicans [13]) | Activity (Candida albicans [14])
0.62 | O=c1c(O)c(-c2ccc(O)c(Oc3c([N+](=O)[O-])cc(C(F)(F)F)cc3[N+](=O)[O-])c2)oc2cc(O)cc(O)c12 | Active | Active | Active | Active | inactive | inactive | Active | Active | inactive | inactive | Active | inactive | Active
0.31 | C[C@@H]1O[C@@H](OC[C@H]2O[C@@H](Oc3c(-c4ccc(O)c(O)c4)oc4cc(O)cc(O)c4c3=O)[C@H](O)[C@@H](O)[C@@H]2O)[C@H](O)[C@H](O)[C@H]1O [RUTIN] | Active | inactive | Active | inactive | inactive | inactive | inactive | inactive | inactive | inactive | inactive | inactive | inactive
